Publication PMC2680982, “The cAMP-Dependent Protein Kinase Inhibitor H-89 Attenuates the Bioluminescence Signal Produced by Renilla Luciferase” (PLoS ONE, 2009)

Biological target: T1, RLuc8 (Renilla luciferase variant) (Renilla reniformis, UniProt P27652, A55T/C124A/S130A/K136R/A143M/M185V/M253L/S287L)
T1 construct: RLuc8 in pRSETB, purified on Ni-NTA from E. coli
T1 sequence (P27652 1-311 A55T/C124A/S130A/K136R/A143M/M185V/M253L/S287L): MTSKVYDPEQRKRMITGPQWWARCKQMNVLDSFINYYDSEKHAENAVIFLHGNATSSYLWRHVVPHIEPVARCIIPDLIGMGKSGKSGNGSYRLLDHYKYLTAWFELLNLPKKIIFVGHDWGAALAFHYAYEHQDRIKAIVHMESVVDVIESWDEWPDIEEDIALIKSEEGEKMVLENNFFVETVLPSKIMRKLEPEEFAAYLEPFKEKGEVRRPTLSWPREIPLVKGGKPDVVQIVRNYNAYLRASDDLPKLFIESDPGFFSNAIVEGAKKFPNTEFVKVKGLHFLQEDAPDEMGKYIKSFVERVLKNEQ
Experiment: bioluminescence inhibition of […] purified RLuc8 with coelenterazine-h titration
Assay type: biochemical

O=S(=O)(NCCNC/C=C/c1ccc(Br)cc1)c1cccc2cnccc12 [H-89, N-[2-(p-bromocinnamylamino)ethyl]-5-isoquinolinesulfonamide]
IC50: 21 µM
